Data taken from PubChem BioAssay (NCI).
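Grown in 96-well plates, cells were treated for 48 hours with each compound at five concentrations. Insufficient inhibition: endpoint recorded as highest concentration tested. The concentration for full growth arrest is given as TGI.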

How the values were obtained:
Assay in all cases: growth of human tumour cells (NCI), 48 h
[1] = tested on: 786-0 renal
[2] = tested on: A498 renal
[3] = tested on: A549 NSCLC
[4] = tested on: ACHN renal
[5] = tested on: CAKI-1 renal
[6] = tested on: CCRF-CEM leukemia
[7] = tested on: COLO 205 colon
[8] = tested on: DLD-1 colon
[9] = tested on: DMS 114 small cell lung
[10] = tested on: DMS 273 small cell lung
[11] = tested on: EKVX NSCLC
[12] = tested on: HCC-2998 colon
[13] = tested on: HCT-116 colon
[14] = tested on: HCT-15 colon
[15] = tested on: HL-60(TB) leukemia
[16] = tested on: HOP-18 NSCLC
[17] = tested on: HOP-62 NSCLC
[18] = tested on: HOP-92 NSCLC
[19] = tested on: HT29 colon
[20] = tested on: IGROV1 ovarian
[21] = tested on: K-562 leukemia
[22] = tested on: KM12 colon
[23] = tested on: KM20L2 colon
[24] = tested on: LOX IMVI melanoma
[25] = tested on: LXFL 529 NSCLC
[26] = tested on: M14 melanoma
[27] = tested on: M19-MEL melanoma
[28] = tested on: MALME-3M melanoma
[29] = tested on: MOLT-4 leukemia
[30] = tested on: NCI-H226 lung
[31] = tested on: NCI-H23 lung
[32] = tested on: NCI-H460 lung
[33] = tested on: NCI-H522 lung
[34] = tested on: OVCAR-3 ovarian
[35] = tested on: OVCAR-4 ovarian
[36] = tested on: OVCAR-5 ovarian
[37] = tested on: OVCAR-8 ovarian
[38] = tested on: RXF 393 renal
[39] = tested on: SF-268 CNS
[40] = tested on: SF-295 CNS
[41] = tested on: SF-539 CNS
[42] = tested on: SK-MEL-2 melanoma
[43] = tested on: SK-MEL-28 melanoma
[44] = tested on: SK-MEL-5 melanoma
[45] = tested on: SK-OV-3 ovarian
[46] = tested on: SN12C renal
[47] = tested on: SNB-19 CNS
[48] = tested on: SNB-75 CNS
[49] = tested on: SNB-78 CNS
[50] = tested on: SR leukemia
[51] = tested on: SW-620 colon
[52] = tested on: TK-10 renal
[53] = tested on: U251 CNS
[54] = tested on: UACC-257 melanoma
[55] = tested on: UACC-62 melanoma
[56] = tested on: UO-31 renal
[57] = tested on: RPMI-8226 leukemia
[58] = tested on: XF 498 CNS

Measured: TGI

OCC[N+]12CCCN1CCC2
> 100 µM: [1] | [2] | [3] | [4] | [5] | [6] | [7] | [8] | [9] | [10] | [11] | [12] | [13] | [14] | [15] | [16] | [17] | [18] | [19] | [20] | [21] | [22] | [23] | [24] | [25] | [26] | [27] | [28] | [29] | [30] | [31] | [32] | [33] | [34] | [35] | [36] | [37] | [38] | [39] | [40] | [41] | [42] | [43] | [44] | [45] | [46] | [47] | [48] | [49] | [50] | [51] | [52] | [53] | [54] | [55] | [56]

CSc1ccc2c(cc1=O)[C@@H](NC(=O)c1ccc(Cl)cc1)CCc1cc(O)c(O)c(O)c1-2
68.1 µM: [55]
91.5 µM: [57]
82 µM: [35]
37.1 µM: [51]
56.5 µM: [34]
> 100 µM: [1] | [2] | [3] | [4] | [5] | [6] | [7] | [9] | [10] | [11] | [12] | [15] | [16] | [17] | [18] | [19] | [22] | [23] | [25] | [26] | [27] | [28] | [29] | [30] | [31] | [32] | [36] | [37] | [38] | [39] | [40] | [41] | [42] | [43] | [44] | [45] | [47] | [48] | [49] | [52] | [53] | [54] | [56]
51.7 µM: [14]
32.1 µM: [13]
52.1 µM: [33]
33.6 µM: [24]
50.8 µM: [20]
68.3 µM: [21]
75.8 µM: [46]
72.7 µM: [8]

C[C@@H](NS(=O)(=O)c1ccc(NC(=O)c2ccccc2)cc1)C(=O)O
> 100 µM: [1] | [2] | [3] | [4] | [5] | [6] | [7] | [8] | [10] | [11] | [12] | [14] | [15] | [16] | [18] | [19] | [20] | [21] | [22] | [23] | [24] | [25] | [26] | [27] | [28] | [29] | [31] | [32] | [33] | [34] | [35] | [36] | [37] | [57] | [38] | [39] | [40] | [41] | [42] | [43] | [44] | [45] | [46] | [47] | [48] | [51] | [52] | [53] | [54] | [55] | [56] | [58]

COc1cc2oc(-c3ccccc3)cc(=O)c2c(O)c1C
> 100 µM: [1] | [2] | [3] | [4] | [5] | [6] | [7] | [8] | [9] | [10] | [11] | [12] | [13] | [14] | [15] | [17] | [18] | [19] | [20] | [21] | [22] | [23] | [24] | [25] | [26] | [27] | [28] | [29] | [30] | [31] | [32] | [33] | [34] | [35] | [36] | [37] | [57] | [39] | [40] | [41] | [42] | [43] | [44] | [45] | [46] | [48] | [49] | [50] | [51] | [52] | [53] | [54] | [55] | [56]
